Results taken from ChEMBL document CHEMBL3046089, “A study on the reactions of alkyl 4,6-bis(4-fluorophenyl)-2-oxocyclohex-3-ene-1-carboxylate and in vitro antioxidant activity of derivatives” (Med Chem Res, 2013).

Assays:
[1] = Antioxidant activity assessed as concentration equivalent of 0.5 absorbance glutathione for potassium ferricyanide reduction after 20 min by spectrophotometric assay; assay type: functional
[2] = test system: Radical scavenging activity; test: Antioxidant activity assessed as DPPH radical scavenging activity at 1 mg/ml after 20 min by spectrophotometric analysis; assay type: functional

## COC(=O)C1/C(=N/NC(N)=O)C=C(c2ccc(F)cc2)CC1c1ccc(F)cc1 (stereo unspecified)
[1]
  Activity: 20 mg/mL
[2]
  Activity: 65.4%

## O/N=C1/C=C(c2ccc(F)cc2)CC(c2ccc(F)cc2)C1 (stereo unspecified)
[1]
  Activity: 4.54 mg/mL
[2]
  Activity: 89.2%

## N[C@@H](CCC(=O)N[C@@H](CS)C(=O)NCC(=O)O)C(=O)O
[1]
  Activity: 0.595 mg/mL
[2]
  Activity: 92.1%

## COC(=O)c1c(OC)cc(-c2ccc(F)cc2)cc1-c1ccc(F)cc1
[1]
  Activity: 14.3 mg/mL
[2]
  Activity: 49.1%

## CCOC(=O)C1=C(N)C=C(c2ccc(F)cc2)CC1c1ccc(F)cc1 (stereo unspecified)
[1]
  Activity: 25 mg/mL
[2]
  Activity: 68%

## O=c1c2c(-c3ccc(F)cc3)cc(-c3ccc(F)cc3)cc2[nH]n1-c1ccccc1
[1]
  Activity: 5.55 mg/mL
[2]
  Activity: 95.2%

## O=c1[nH][nH]c2c1C(c1ccc(F)cc1)CC(c1ccc(F)cc1)=C2 (stereo unspecified)
[1]
  Activity: 1.81 mg/mL
[2]
  Activity: 95.9%

## N/N=C(N)/N=C1/C=C(c2ccc(F)cc2)CC(c2ccc(F)cc2)C1 (stereo unspecified)
[1]
  Activity: 4.03 mg/mL
[2]
  Activity: 89.2%

## CCOC(=O)C1/C(=N/NC(N)=O)C=C(c2ccc(F)cc2)CC1c1ccc(F)cc1 (stereo unspecified)
[1]
  Activity: 8.33 mg/mL
[2]
  Activity: 66.5%

## CCOC(=O)c1c(OC)cc(-c2ccc(F)cc2)cc1-c1ccc(F)cc1
[1]
  Activity: 22.7 mg/mL
[2]
  Activity: 50.2%

## O=C1Nc2ccccc2Nc2cc(-c3ccc(F)cc3)cc(-c3ccc(F)cc3)c21
[1]
  Activity: 2.64 mg/mL
[2]
  Activity: 58.7%

## COC(=O)C1=C(N)C=C(c2ccc(F)cc2)CC1c1ccc(F)cc1 (stereo unspecified)
[1]
  Activity: 5.55 mg/mL
[2]
  Activity: 40.9%

## O=c1c2c([nH]n1-c1ccc([N+](=O)[O-])cc1)C=C(c1ccc(F)cc1)CC2c1ccc(F)cc1 (stereo unspecified)
[1]
  Activity: 3.52 mg/mL
[2]
  Activity: 94.4%
